Data: patent US11859234B2, “Method of monitoring RNase L activity” (THE TRUSTEES OF PRINCETON UNIVERSITY, priority 2016, dated 2024)

What was measured:
RNase L [1] = target: T1, RNase L (Homo sapiens, UniProt Q05823); assay: RNA sequencing of RNase L cleavage products in permeabilized T47D cells stimulated with 2-5A; format: cell-based; design: endogenous in cells; conditions: 1 μM 2-5A for 3 minutes compared with 1 minute
T1 sequence (Q05823 1-741): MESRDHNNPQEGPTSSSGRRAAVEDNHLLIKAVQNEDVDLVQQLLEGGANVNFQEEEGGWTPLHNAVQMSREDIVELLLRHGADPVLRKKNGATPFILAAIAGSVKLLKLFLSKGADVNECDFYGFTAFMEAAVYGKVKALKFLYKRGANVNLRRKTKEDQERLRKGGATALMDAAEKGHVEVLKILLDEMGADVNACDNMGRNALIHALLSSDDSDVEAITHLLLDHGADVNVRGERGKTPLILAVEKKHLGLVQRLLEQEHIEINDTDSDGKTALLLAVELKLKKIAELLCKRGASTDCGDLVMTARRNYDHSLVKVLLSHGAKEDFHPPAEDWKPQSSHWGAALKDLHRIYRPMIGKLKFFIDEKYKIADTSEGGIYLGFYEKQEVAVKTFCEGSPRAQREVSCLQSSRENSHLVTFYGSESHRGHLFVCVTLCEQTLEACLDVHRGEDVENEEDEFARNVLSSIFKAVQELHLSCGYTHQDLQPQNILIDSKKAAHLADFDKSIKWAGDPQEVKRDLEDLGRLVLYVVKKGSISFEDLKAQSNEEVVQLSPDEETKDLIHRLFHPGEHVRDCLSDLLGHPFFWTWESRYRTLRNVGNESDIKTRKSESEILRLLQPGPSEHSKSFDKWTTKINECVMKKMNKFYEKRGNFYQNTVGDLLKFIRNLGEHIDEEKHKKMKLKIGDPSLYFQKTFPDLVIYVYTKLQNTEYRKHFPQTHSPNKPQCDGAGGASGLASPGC
Procedure: Initially, approximately 500 ng-1 μg miRvana purified small RNAs is ligated to the ligation adapter (5′-[…]-3′(SEQ ID NO: 1), underlined portion is RNA) using RtcB. It is contemplated that the adaptor has a 3′-desthiobiotin modification. The ligated RNAs are separated from free adapter by resolving on 10% urea PAGE by staining gel and excising all RNA larger than the free adapter. RNA is eluted from gel slices overnight at 4° C. in TE buffer pH 7.5 supplemented with 0.05% Triton X-100. Glycogen is added to RNAs and precipitated with 3 volumes of 100% ethanol and 1/10 volume 3M sodium acetate pH 5.2. The sample is then incubated on dry ice for 30 minutes. […]
Libraries are assessed on an Agilent High Sensitivity DNA chip, and equimolar amounts of libraries pooled and resolved on 6% native PAGE and visualized by gel staining. […] Libraries are now ready for sequencing on the Illumina HiSeq 2000 platform.
The RNA sequencing experiments were also carried out in HeLa cells that overexpress RNase L (RNLoe) and in T47D cells derived from human breast cancer and that have been permeablized and stimulated for 1 minute or 3 minutes with 1 μM 2-5A, which specifically activates RNase L but not other pathways. Results of the primary types of cleavage products detected, e.g., tRNA-His, tRNA-Pro, RNY1, RNY3, RNY4 and RNY5, were similar. […]

RNase L [2] = target: T1, RNase L; assay: qPCR detection of tRNA His-GUG-36 RNase L cleavage product in poly I:C stimulated HeLa cells; format: cell-based; design: endogenous in cells; host or cells: HeLa cells; conditions: total RNA, RtcB ligation, qPCR with His-GUG-36-2 primer, ΔΔCt method (FIG. 4F)
Procedure: Reaction components useful in the ligation reaction include the following: 2-500 ng purified RNA, 30 μM RtcB ligase, 1 U/μL RNase inhibitor, 10 μM ligation adapter, 100 μM GTP, 20 mM HEPES pH 7.5, 2 mM MnCl2, 110 mM NaCl, 4 mM DTT, 2.2% glycerol (carried into the reaction with RtcB and RNase inhibitor). The standard reaction volume is 10 μL with incubation for 1 hour at 37° C.
After incubation 1 μL of 33 mM EDTA is added followed by a brief room temperature incubation (usually 5-10 minutes) giving a final concentration of EDTA of 3 mM. EDTA is added to chelate Mn^2+ ions that might interfere in downstream steps as well as to stop the ligation reaction.
1 μL of EDTA quenched ligation reaction is mixed with dNTPs and 10 picomoles (pmol) of RT primer in 10 μL volume. The mixture is incubated at 65° C. for 5 minutes then placed on ice (optional). The remaining components are added for a 20 μL reverse transcription reaction: RT buffer, 0.2 U μL RNase inhibitor, Reverse transcriptase (added last), and H2O for 20 μL final volume and incubated according to the RT manufacturer's specifications. […]
For the qPCR, total purified RNA from non-stimulated and poly I:C stimulated HeLa cells was serially diluted, ligated to the adapter with RtcB, reverse transcribed, and detected by qPCR using the His-GUG-36-2 primer and qPCR reverse primer.

Substance	RNA cleavage profile of RNase L products (RNase L [1])	number of tRNA His-GUG-36-2 cleavage products compared to non-stimulated cells (RNase L [2])
2′,5′-oligoadenylate [2-5A]	enhanced induction of RNA cleavage of the same products	
polyinosinic-polycytidylic acid [polyI:C]		significantly increased
